Results on 68 sequences are retold here after the supplement of paper PMC11208160.

A short description of the data set: recombinant UMI read abundance after kanamycin selection (control-corrected) (log10(CPM+1)); higher = more efficient recombination; extreme values may be limits of the assay; sequences stand for … in AGTGCAGAGAAAATCGGCCAGTTTTCTCTGCCTGCAGTCCGCATGCCGTGGGACCCCTTGGGTTCTAACCTGTTGCCTAGATTTATGCAGCGGACTGCCTTTCTCCCAAAGTGATAAACCGG…AGGTTGGTTTCACT; site = the 11-nt donor. An outline of the steps: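 After plating on IPTG (0.07 mM) plus kanamycin, or unselected, in two replicates, recombinant UMIs were PCR-amplified across the donor–target junction and sequenced. The cells were Escherichia coli co-electroporated with a UMI-tagged donor and donor-binding-loop pair library and a target plasmid with a fixed target and T7-inducible IS621 bridge recombinase. Values are log10(CPM+1), with CPM averaged over replicates and scaled by control-derived factors.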
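Further: IS621 bridge recombinase in Escherichia coli cells against a fixed T5 target plasmid.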

As to “TACTAATCATGGACCGGTTTTCCCGGTAATCCGTATTTGGG (site TACTAATCTCC)”, the “recombinant UMI read abundance (log10)” value came to 0.0128.
As to “TACTCAGCATGGACCGGTTTTCCCGGTAATCCGTATTTGGA (site TACTCAGCTTC)”, the “recombinant UMI read abundance (log10)” value was 0.619.
Consider “TACTCCGCATGGACCGGTTTTCCCGGTAATCCGTATTTGTC (site TACTCCGCTGA)”, for which the “recombinant UMI read abundance (log10)” value turned out to be 2.18.
For “TACTGACCATGGACCGGTTTTCCCGGTAATCCGTATTTGGA (site TACTGACCTTC)”, the “recombinant UMI read abundance (log10)” value was found to be 0.0192.
On to “TACTGACCATGGACCGGTTTTCCCGGTAATCCGTATTTGGG (site TACTGACCTCC)”, for which the “recombinant UMI read abundance (log10)” value is 0.0283.
Take “TAGAATACATGGACCGGTTTTCCCGGTAATCCGTATTTGCA (site AAGAATACTTG)”: the “recombinant UMI read abundance (log10)” value was 0.559.
Take “TAGAATACATGGACCGGTTTTCCCGGTAATCCGTATTTGCA (site CAGAATACTTG)”: the “recombinant UMI read abundance (log10)” value worked out at 0.572.
For “TAGAATACATGGACCGGTTTTCCCGGTAATCCGTATTTGCA (site GAGAATACTTG)”, the “recombinant UMI read abundance (log10)” value came to 0.196.
As for “TAGAATACATGGACCGGTTTTCCCGGTAATCCGTATTTGCA (site TAAAATACTTG)”, the “recombinant UMI read abundance (log10)” value amounted to 0.792.
Regarding “TAGAATACATGGACCGGTTTTCCCGGTAATCCGTATTTGCA (site TACAATACTTG)”, the “recombinant UMI read abundance (log10)” value was found to be 0.745.
In the case of “TAGAATACATGGACCGGTTTTCCCGGTAATCCGTATTTGCA (site TAGAAAACTTG)”, the “recombinant UMI read abundance (log10)” value came to 0.00693.
The same measure for “TAGAATACATGGACCGGTTTTCCCGGTAATCCGTATTTGCA (site TAGAACACTTG)”: 0; for “TAGAATACATGGACCGGTTTTCCCGGTAATCCGTATTTGCA (site TAGAAGACTTG)”: 0.00484; for “TAGAATACATGGACCGGTTTTCCCGGTAATCCGTATTTGCA (site TAGAATACTAG)”: 0.
For the sequence “TAGAATACATGGACCGGTTTTCCCGGTAATCCGTATTTGCA (site TAGAATACTCG)”, the “recombinant UMI read abundance (log10)” value worked out at 0.
As to “TAGAATACATGGACCGGTTTTCCCGGTAATCCGTATTTGCA (site TAGAATACTGG)”, the “recombinant UMI read abundance (log10)” value turned out to be 0.
For “TAGAATACATGGACCGGTTTTCCCGGTAATCCGTATTTGCA (site TAGAATACTTA)” the value was 0.
In the case of “TAGAATACATGGACCGGTTTTCCCGGTAATCCGTATTTGCA (site TAGAATACTTC)”, the “recombinant UMI read abundance (log10)” value was found to be 0.0185.
As to “TAGAATACATGGACCGGTTTTCCCGGTAATCCGTATTTGCA (site TAGAATACTTG)”, the “recombinant UMI read abundance (log10)” value was found to be 2.18.
Turning to “TAGAATACATGGACCGGTTTTCCCGGTAATCCGTATTTGCA (site TAGAATACTTT)”, the “recombinant UMI read abundance (log10)” value amounted to 0.
On to “TAGAATACATGGACCGGTTTTCCCGGTAATCCGTATTTGCA (site TAGAATCCTTG)”, for which the “recombinant UMI read abundance (log10)” value turned out to be 0.
For “TAGAATACATGGACCGGTTTTCCCGGTAATCCGTATTTGCA (site TAGAATGCTTG)” the value was 0; for “TAGAATACATGGACCGGTTTTCCCGGTAATCCGTATTTGCA (site TAGAATTCTTG)”, 0; for “TAGAATACATGGACCGGTTTTCCCGGTAATCCGTATTTGCA (site TAGACTACTTG)”, 0.486.
On to “TAGAATACATGGACCGGTTTTCCCGGTAATCCGTATTTGCA (site TAGAGTACTTG)”, for which the “recombinant UMI read abundance (log10)” value was 0.446.
Take “TAGAATACATGGACCGGTTTTCCCGGTAATCCGTATTTGCA (site TAGATTACTTG)”: the “recombinant UMI read abundance (log10)” value was 0.00714.
Consider “TAGAATACATGGACCGGTTTTCCCGGTAATCCGTATTTGCA (site TAGCATACTTG)”, for which the “recombinant UMI read abundance (log10)” value is 0.783.
Consider “TAGAATACATGGACCGGTTTTCCCGGTAATCCGTATTTGCA (site TAGGATACTTG)”, for which the “recombinant UMI read abundance (log10)” value was found to be 1.71.
For “TAGAATACATGGACCGGTTTTCCCGGTAATCCGTATTTGCA (site TAGTATACTTG)” the value was 1.34; for “TAGAATACATGGACCGGTTTTCCCGGTAATCCGTATTTGCA (site TATAATACTTG)”, 0.633; for “TAGAATACATGGACCGGTTTTCCCGGTAATCCGTATTTGCA (site TCGAATACTTG)”, 0.00888.
Turning to “TAGAATACATGGACCGGTTTTCCCGGTAATCCGTATTTGCA (site TGGAATACTTG)”, the “recombinant UMI read abundance (log10)” value is 0.
As to “TAGAATACATGGACCGGTTTTCCCGGTAATCCGTATTTGCA (site TTGAATACTTG)”, the “recombinant UMI read abundance (log10)” value stood at 0.27.
For “TAGACTTCATGGACCGGTTTTCCCGGTAATCCGTATTTGGT (site TAGACTTCTAC)” the value was 1.64.
For the sequence “TAGACTTCATGGACCGGTTTTCCCGGTAATCCGTATTTGGT (site TAGCCTTCTAC)”, the “recombinant UMI read abundance (log10)” value was 0.0272.
As to “TAGACTTCATGGACCGGTTTTCCCGGTAATCCGTATTTGGT (site TAGGCTTCTAC)”, the “recombinant UMI read abundance (log10)” value was 0.329.
For “TAGACTTCATGGACCGGTTTTCCCGGTAATCCGTATTTGGT (site TAGTCTTCTAC)”, the “recombinant UMI read abundance (log10)” value was 0.175.
“TAGAGAACATGGACCGGTTTTCCCGGTAATCCGTATTTGAG (site TAGAGAACTCT)”: the “recombinant UMI read abundance (log10)” value is 1.87.
For “TAGAGCCCATGGACCGGTTTTCCCGGTAATCCGTATTTGCG (site TAGAGCCCTCG)”, the “recombinant UMI read abundance (log10)” value worked out at 0.457.
Consider “TAGAGTCCATGGACCGGTTTTCCCGGTAATCCGTATTTGTA (site TAAAGTCCTTA)”, for which the “recombinant UMI read abundance (log10)” value was determined as 0.546.
Regarding “TAGAGTCCATGGACCGGTTTTCCCGGTAATCCGTATTTGTA (site TACAGTCCTTA)”, the “recombinant UMI read abundance (log10)” value came out at 0.159.
For “TAGAGTCCATGGACCGGTTTTCCCGGTAATCCGTATTTGTA (site TAGAGTCCTTA)” the value was 1.37.
In the case of “TAGAGTCCATGGACCGGTTTTCCCGGTAATCCGTATTTGTA (site TATAGTCCTTA)”, the “recombinant UMI read abundance (log10)” value was found to be 0.132.
With “TAGATGACATGGACCGGTTTTCCCGGTAATCCGTATTTGCT (site TAGATGACTAG)”, the “recombinant UMI read abundance (log10)” value was found to be 2.49.
Consider “TAGATTACATGGACCGGTTTTCCCGGTAATCCGTATTTGCA (site TAGAATACTTG)”, for which the “recombinant UMI read abundance (log10)” value came out at 0.304.
Regarding “TAGATTACATGGACCGGTTTTCCCGGTAATCCGTATTTGCA (site TAGACTACTTG)”, the “recombinant UMI read abundance (log10)” value stood at 0.98.
For “TAGATTACATGGACCGGTTTTCCCGGTAATCCGTATTTGCA (site TAGAGTACTTG)” the value was 0.616.
For “TAGATTACATGGACCGGTTTTCCCGGTAATCCGTATTTGCA (site TAGATTACTTG)” the value was 1.52.
As to “TAGCCCACATGGACCGGTTTTCCCGGTAATCCGTATTTGTT (site TAGCCCACTAA)”, the “recombinant UMI read abundance (log10)” value turned out to be 0.409.
Regarding “TAGCCGGCATGGACCGGTTTTCCCGGTAATCCGTATTTGTA (site TAGCCGGCTTA)”, the “recombinant UMI read abundance (log10)” value came to 0.599.
The same measure for “TAGCTGGCATGGACCGGTTTTCCCGGTAATCCGTATTTGAA (site TAGCTAGCTTT)”: 0.588; for “TAGCTGGCATGGACCGGTTTTCCCGGTAATCCGTATTTGAA (site TAGCTCGCTTT)”: 0.0161; for “TAGCTGGCATGGACCGGTTTTCCCGGTAATCCGTATTTGAA (site TAGCTGGCTTT)”: 0.732.
In the case of “TAGCTGGCATGGACCGGTTTTCCCGGTAATCCGTATTTGAA (site TAGCTTGCTTT)”, the “recombinant UMI read abundance (log10)” value came out at 0.
Turning to “TAGCTTACATGGACCGGTTTTCCCGGTAATCCGTATTTGTC (site TAGCTTACTGA)”, the “recombinant UMI read abundance (log10)” value came to 1.56.
For “TAGCTTCCATGGACCGGTTTTCCCGGTAATCCGTATTTGGG (site TAGCTTCCTCC)”, the “recombinant UMI read abundance (log10)” value amounted to 0.0588.
Take “TAGCTTGCATGGACCGGTTTTCCCGGTAATCCGTATTTGAA (site TAGCTAGCTTT)”: the “recombinant UMI read abundance (log10)” value was 0.0193.
Turning to “TAGCTTGCATGGACCGGTTTTCCCGGTAATCCGTATTTGAA (site TAGCTCGCTTT)”, the “recombinant UMI read abundance (log10)” value came out at 0.0167.
For “TAGCTTGCATGGACCGGTTTTCCCGGTAATCCGTATTTGAA (site TAGCTGGCTTT)”, the “recombinant UMI read abundance (log10)” value was 0.02.
As for “TAGCTTGCATGGACCGGTTTTCCCGGTAATCCGTATTTGAA (site TAGCTTGCTTT)”, the “recombinant UMI read abundance (log10)” value worked out at 1.4.
Take “TAGCTTTCATGGACCGGTTTTCCCGGTAATCCGTATTTGGT (site TAGCATTCTAC)”: the “recombinant UMI read abundance (log10)” value was determined as 0.374.
With “TAGCTTTCATGGACCGGTTTTCCCGGTAATCCGTATTTGGT (site TAGCCTTCTAC)”, the “recombinant UMI read abundance (log10)” value amounted to 0.157.
In the case of “TAGCTTTCATGGACCGGTTTTCCCGGTAATCCGTATTTGGT (site TAGCGTTCTAC)”, the “recombinant UMI read abundance (log10)” value came to 0.
Regarding “TAGCTTTCATGGACCGGTTTTCCCGGTAATCCGTATTTGGT (site TAGCTTTCTAC)”, the “recombinant UMI read abundance (log10)” value was 0.807.
As to “TAGGAAACATGGACCGGTTTTCCCGGTAATCCGTATTTGCG (site TAGGAAACTCG)”, the “recombinant UMI read abundance (log10)” value came out at 2.39.
For “TAGGAAACATGGACCGGTTTTCCCGGTAATCCGTATTTGCG (site TAGGAACCTCG)” the value was 0; for “TAGGAAACATGGACCGGTTTTCCCGGTAATCCGTATTTGCG (site TAGGAAGCTCG)”, 2.11.
For the sequence “TAGGAAACATGGACCGGTTTTCCCGGTAATCCGTATTTGCG (site TAGGAATCTCG)”, the “recombinant UMI read abundance (log10)” value is 1.75.
